Test results reported in the supplement of paper PMC10307832.

Key:
Assay in all cases: relative viability (nuclei count vs DMSO), 5 days (fraction); higher = more cells survive
IPA-3 + Vorinostat = compound: C1=CC=C2C(=C1)C=CC(=C2SSC3=C(C=CC4=CC=CC=C43)O)O [IPA-3] + O=C(CCCCCCC(=O)Nc1ccccc1)NO [Vorinostat] (partner 1 µM)
Method in brief: (§1)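 Lung cancer cell lines in 1536-well plates got either a single drug or a fixed anchor-drug dose together with five library-drug doses (not always all listed) in √10 steps, by pin tool, on the day after seeding. Nuclei were counted after 5 days, and relative viability is the treated-to-vehicle ratio of nuclei counts. Values are medians of duplicate plates.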

IPA-3 + Crizotinib = compound: C1=CC=C2C(=C1)C=CC(=C2SSC3=C(C=CC4=CC=CC=C43)O)O [IPA-3] + C[C@@H](Oc1cc(-c2cnn(C3CCNCC3)c2)cnc1N)c1c(Cl)ccc(F)c1Cl [Crizotinib] (partner 1 µM)
Method in brief: as §1

RAF265 + Olaparib = compound: Cn1c(Nc2ccc(C(F)(F)F)cc2)nc2cc(Oc3ccnc(-c4ncc(C(F)(F)F)[nH]4)c3)ccc21 [RAF265] + O=C(c1cc(Cc2n[nH]c(=O)c3ccccc23)ccc1F)N1CCN(C(=O)C2CC2)CC1 [Olaparib] (partner 8 µM)
Method in brief: as §1

RAF265 + Navitoclax = compound: Cn1c(Nc2ccc(C(F)(F)F)cc2)nc2cc(Oc3ccnc(-c4ncc(C(F)(F)F)[nH]4)c3)ccc21 [RAF265] + CC1(C)CCC(c2ccc(Cl)cc2)=C(CN2CCN(c3ccc(C(=O)NS(=O)(=O)c4ccc(N[C@H](CCN5CCOCC5)CSc5ccccc5)c(S(=O)(=O)C(F)(F)F)c4)cc3)CC2)C1 [Navitoclax] (partner 0.5 µM)
Method in brief: as §1

## IA-LM
IPA-3 + Vorinostat; first compound 0.2 µM
  relative viability: 1.06
IPA-3 + Vorinostat; first compound 0.6325 µM
  relative viability: 0.922
IPA-3 + Vorinostat; first compound 2 µM
  relative viability: 0.925
IPA-3 + Vorinostat; first compound 6.325 µM
  relative viability: 0.891
IPA-3 + Vorinostat; first compound 20 µM
  relative viability: 1.15
IPA-3 + Crizotinib; first compound 0.2 µM
  relative viability: 1.25
IPA-3 + Crizotinib; first compound 0.6325 µM
  relative viability: 0.683
IPA-3 + Crizotinib; first compound 2 µM
  relative viability: 0.904
IPA-3 + Crizotinib; first compound 6.325 µM
  relative viability: 0.553
IPA-3 + Crizotinib; first compound 20 µM
  relative viability: 0.555
RAF265 + Olaparib; first compound 0.01 µM
  relative viability: 0.745
RAF265 + Olaparib; first compound 0.03162 µM
  relative viability: 0.81
RAF265 + Olaparib; first compound 0.1 µM
  relative viability: 0.832
RAF265 + Olaparib; first compound 0.3162 µM
  relative viability: 0.681
RAF265 + Olaparib; first compound 1 µM
  relative viability: 0.61
RAF265 + Navitoclax; first compound 0.01 µM
  relative viability: 0.73
RAF265 + Navitoclax; first compound 0.1 µM
  relative viability: 0.663
RAF265 + Navitoclax; first compound 0.3162 µM
  relative viability: 0.597
RAF265 + Navitoclax; first compound 1 µM
  relative viability: 0.609

## NCI-H520
IPA-3 + Vorinostat; first compound 0.2 µM
  relative viability: 0.713
IPA-3 + Vorinostat; first compound 0.6325 µM
  relative viability: 0.849
IPA-3 + Vorinostat; first compound 6.325 µM
  relative viability: 0.579
IPA-3 + Vorinostat; first compound 20 µM
  relative viability: 0.796
IPA-3 + Crizotinib; first compound 0.2 µM
  relative viability: 0.962
IPA-3 + Crizotinib; first compound 0.6325 µM
  relative viability: 0.803
IPA-3 + Crizotinib; first compound 2 µM
  relative viability: 0.682
IPA-3 + Crizotinib; first compound 6.325 µM
  relative viability: 0.74
IPA-3 + Crizotinib; first compound 20 µM
  relative viability: 0.919
RAF265 + Olaparib; first compound 0.01 µM
  relative viability: 0.366
RAF265 + Olaparib; first compound 0.03162 µM
  relative viability: 0.316
RAF265 + Olaparib; first compound 0.1 µM
  relative viability: 0.322
RAF265 + Olaparib; first compound 0.3162 µM
  relative viability: 0.301
RAF265 + Olaparib; first compound 1 µM
  relative viability: 0.255
RAF265 + Navitoclax; first compound 0.01 µM
  relative viability: 1.04
RAF265 + Navitoclax; first compound 0.03162 µM
  relative viability: 0.888
RAF265 + Navitoclax; first compound 0.1 µM
  relative viability: 1.07
RAF265 + Navitoclax; first compound 0.3162 µM
  relative viability: 0.848
RAF265 + Navitoclax; first compound 1 µM
  relative viability: 0.706

## LCLC-97TM1
IPA-3 + Vorinostat; first compound 0.2 µM
  relative viability: 1.11
IPA-3 + Vorinostat; first compound 0.6325 µM
  relative viability: 0.875
IPA-3 + Vorinostat; first compound 2 µM
  relative viability: 0.724
IPA-3 + Vorinostat; first compound 6.325 µM
  relative viability: 0.575
IPA-3 + Vorinostat; first compound 20 µM
  relative viability: 1.12
IPA-3 + Crizotinib; first compound 0.2 µM
  relative viability: 0.439
IPA-3 + Crizotinib; first compound 0.6325 µM
  relative viability: 0.355
IPA-3 + Crizotinib; first compound 2 µM
  relative viability: 0.448
IPA-3 + Crizotinib; first compound 6.325 µM
  relative viability: 0.315
IPA-3 + Crizotinib; first compound 20 µM
  relative viability: 0.343
RAF265 + Olaparib; first compound 0.01 µM
  relative viability: 0.363
RAF265 + Olaparib; first compound 0.03162 µM
  relative viability: 0.299
RAF265 + Olaparib; first compound 0.1 µM
  relative viability: 0.237
RAF265 + Olaparib; first compound 0.3162 µM
  relative viability: 0.22
RAF265 + Olaparib; first compound 1 µM
  relative viability: 0.109
RAF265 + Navitoclax; first compound 0.01 µM
  relative viability: 0.512
RAF265 + Navitoclax; first compound 0.03162 µM
  relative viability: 0.356
RAF265 + Navitoclax; first compound 0.1 µM
  relative viability: 0.461
RAF265 + Navitoclax; first compound 0.3162 µM
  relative viability: 0.191
RAF265 + Navitoclax; first compound 1 µM
  relative viability: 0.135

## NCI-H2170
IPA-3 + Vorinostat; first compound 0.2 µM
  relative viability: 0.87
IPA-3 + Vorinostat; first compound 0.6325 µM
  relative viability: 0.997
IPA-3 + Vorinostat; first compound 2 µM
  relative viability: 1.04
IPA-3 + Vorinostat; first compound 6.325 µM
  relative viability: 0.768
IPA-3 + Vorinostat; first compound 20 µM
  relative viability: 0.901
IPA-3 + Crizotinib; first compound 0.2 µM
  relative viability: 1.24
IPA-3 + Crizotinib; first compound 0.6325 µM
  relative viability: 1.11
IPA-3 + Crizotinib; first compound 2 µM
  relative viability: 1.18
IPA-3 + Crizotinib; first compound 6.325 µM
  relative viability: 1.16
IPA-3 + Crizotinib; first compound 20 µM
  relative viability: 1.33
RAF265 + Olaparib; first compound 0.01 µM
  relative viability: 0.58
RAF265 + Olaparib; first compound 0.03162 µM
  relative viability: 0.485
RAF265 + Olaparib; first compound 0.1 µM
  relative viability: 0.596
RAF265 + Olaparib; first compound 0.3162 µM
  relative viability: 0.438
RAF265 + Olaparib; first compound 1 µM
  relative viability: 0.405
RAF265 + Navitoclax; first compound 0.01 µM
  relative viability: 0.586
RAF265 + Navitoclax; first compound 0.03162 µM
  relative viability: 0.434
RAF265 + Navitoclax; first compound 0.1 µM
  relative viability: 0.462
RAF265 + Navitoclax; first compound 0.3162 µM
  relative viability: 0.3
RAF265 + Navitoclax; first compound 1 µM
  relative viability: 0.383

## NCI-H3122
IPA-3 + Vorinostat; first compound 0.2 µM
  relative viability: 1.06
IPA-3 + Vorinostat; first compound 0.6325 µM
  relative viability: 1.2
IPA-3 + Vorinostat; first compound 2 µM
  relative viability: 1.03
IPA-3 + Vorinostat; first compound 6.325 µM
  relative viability: 1.46
IPA-3 + Vorinostat; first compound 20 µM
  relative viability: 1.14
IPA-3 + Crizotinib; first compound 0.2 µM
  relative viability: 0.265
IPA-3 + Crizotinib; first compound 0.6325 µM
  relative viability: 0.283
IPA-3 + Crizotinib; first compound 2 µM
  relative viability: 0.324
IPA-3 + Crizotinib; first compound 6.325 µM
  relative viability: 0.269
IPA-3 + Crizotinib; first compound 20 µM
  relative viability: 0.273
RAF265 + Olaparib; first compound 0.01 µM
  relative viability: 0.609
RAF265 + Olaparib; first compound 0.03162 µM
  relative viability: 0.63
RAF265 + Olaparib; first compound 0.1 µM
  relative viability: 0.631
RAF265 + Olaparib; first compound 0.3162 µM
  relative viability: 0.622
RAF265 + Olaparib; first compound 1 µM
  relative viability: 0.611
RAF265 + Navitoclax; first compound 0.01 µM
  relative viability: 1
RAF265 + Navitoclax; first compound 0.03162 µM
  relative viability: 1.08
RAF265 + Navitoclax; first compound 0.1 µM
  relative viability: 1.01
RAF265 + Navitoclax; first compound 0.3162 µM
  relative viability: 1.04
RAF265 + Navitoclax; first compound 1 µM
  relative viability: 0.967

## PC-14
IPA-3 + Vorinostat; first compound 0.2 µM
  relative viability: 0.952
IPA-3 + Vorinostat; first compound 0.6325 µM
  relative viability: 0.759
IPA-3 + Vorinostat; first compound 2 µM
  relative viability: 0.616
IPA-3 + Vorinostat; first compound 6.325 µM
  relative viability: 0.68
IPA-3 + Vorinostat; first compound 20 µM
  relative viability: 0.747
IPA-3 + Crizotinib; first compound 0.2 µM
  relative viability: 0.938
IPA-3 + Crizotinib; first compound 0.6325 µM
  relative viability: 0.858
IPA-3 + Crizotinib; first compound 2 µM
  relative viability: 1.08
IPA-3 + Crizotinib; first compound 6.325 µM
  relative viability: 0.839
IPA-3 + Crizotinib; first compound 20 µM
  relative viability: 1
RAF265 + Olaparib; first compound 0.01 µM
  relative viability: 0.252
RAF265 + Olaparib; first compound 0.03162 µM
  relative viability: 0.311
RAF265 + Olaparib; first compound 0.1 µM
  relative viability: 0.314
RAF265 + Olaparib; first compound 0.3162 µM
  relative viability: 0.369
RAF265 + Olaparib; first compound 1 µM
  relative viability: 0.245
RAF265 + Navitoclax; first compound 0.01 µM
  relative viability: 0.955
RAF265 + Navitoclax; first compound 0.03162 µM
  relative viability: 1.03
RAF265 + Navitoclax; first compound 0.1 µM
  relative viability: 1.03
RAF265 + Navitoclax; first compound 0.3162 µM
  relative viability: 0.985
RAF265 + Navitoclax; first compound 1 µM
  relative viability: 0.854

## EPLC-272H
IPA-3 + Vorinostat; first compound 0.2 µM
  relative viability: 0.397
IPA-3 + Vorinostat; first compound 0.6325 µM
  relative viability: 0.468
IPA-3 + Vorinostat; first compound 2 µM
  relative viability: 0.366
IPA-3 + Vorinostat; first compound 6.325 µM
  relative viability: 0.482
IPA-3 + Vorinostat; first compound 20 µM
  relative viability: 0.546
IPA-3 + Crizotinib; first compound 0.2 µM
  relative viability: 1.16
IPA-3 + Crizotinib; first compound 0.6325 µM
  relative viability: 0.808
IPA-3 + Crizotinib; first compound 2 µM
  relative viability: 0.995
IPA-3 + Crizotinib; first compound 6.325 µM
  relative viability: 0.912
IPA-3 + Crizotinib; first compound 20 µM
  relative viability: 1.23
RAF265 + Olaparib; first compound 0.01 µM
  relative viability: 0.685
RAF265 + Olaparib; first compound 0.03162 µM
  relative viability: 0.499
RAF265 + Olaparib; first compound 0.1 µM
  relative viability: 0.428
RAF265 + Olaparib; first compound 0.3162 µM
  relative viability: 0.209
RAF265 + Olaparib; first compound 1 µM
  relative viability: 0.161
RAF265 + Navitoclax; first compound 0.01 µM
  relative viability: 1.03
RAF265 + Navitoclax; first compound 0.03162 µM
  relative viability: 0.98
RAF265 + Navitoclax; first compound 0.1 µM
  relative viability: 0.851
RAF265 + Navitoclax; first compound 0.3162 µM
  relative viability: 0.503
RAF265 + Navitoclax; first compound 1 µM
  relative viability: 0.383

## A-427
IPA-3 + Vorinostat; first compound 0.2 µM
  relative viability: 0.858
IPA-3 + Vorinostat; first compound 0.6325 µM
  relative viability: 0.88
IPA-3 + Vorinostat; first compound 2 µM
  relative viability: 0.9
IPA-3 + Vorinostat; first compound 6.325 µM
  relative viability: 0.918
IPA-3 + Vorinostat; first compound 20 µM
  relative viability: 0.853
IPA-3 + Crizotinib; first compound 0.2 µM
  relative viability: 1.11
IPA-3 + Crizotinib; first compound 0.6325 µM
  relative viability: 0.775
IPA-3 + Crizotinib; first compound 2 µM
  relative viability: 0.896
IPA-3 + Crizotinib; first compound 6.325 µM
  relative viability: 0.91
IPA-3 + Crizotinib; first compound 20 µM
  relative viability: 1.12
RAF265 + Olaparib; first compound 0.01 µM
  relative viability: 0.831
RAF265 + Olaparib; first compound 0.03162 µM
  relative viability: 0.604
RAF265 + Olaparib; first compound 0.1 µM
  relative viability: 0.712
RAF265 + Olaparib; first compound 0.3162 µM
  relative viability: 0.459
RAF265 + Olaparib; first compound 1 µM
  relative viability: 0.29
RAF265 + Navitoclax; first compound 0.01 µM
  relative viability: 0.929
RAF265 + Navitoclax; first compound 0.03162 µM
  relative viability: 0.678
RAF265 + Navitoclax; first compound 0.1 µM
  relative viability: 0.96
RAF265 + Navitoclax; first compound 0.3162 µM
  relative viability: 0.579
RAF265 + Navitoclax; first compound 1 µM
  relative viability: 0.272
